Measured values from BigSolDB 2.1.

Nc1nc2ccc(OC(F)(F)F)cc2s1
solubility (mole fraction)
Conditions	278.15 K	283.15 K	288.15 K	293.15 K	298.15 K	303.15 K	308.15 K	313.15 K	318.15 K	323.15 K
in acetone	0.371	0.379	0.387	0.4	0.414	0.425	0.437	0.449	0.464	0.477
in ethanol	0.179	0.188	0.198	0.212	0.223	0.236	0.255	0.273	0.294	0.308
in n-propanol	0.179	0.189	0.202	0.215	0.23	0.249	0.267	0.287	0.312	0.333
